Measurements: patent publication US20100069632A1, “SALTS OF PYRROLOPYRIMIDINONE DERIVATIVES AND PROCESS FOR PREPARING THE SAME” (SK CHEMICALS CO., LTD, priority 2006, published 2010)
Counter-ions that a name gives are not always drawn.

Experiments:
Hygroscopicity = assay type: physicochemical; details: statement in words, no test described
[1] = Thermal stability test at 105° C., impurity content and color change; assay type: physicochemical; details: for Impurity content (%), 3 hours / Color change, 3 hours / Impurity content (%), 48 hours / Color change, 48 hours: dryer at 105° C.; for Color change, 3 hours / Color change, 48 hours: macroscopic observation; for Thermal stability compared with the SK-3530 dihydrochloride salt: summary of Tables 6 and 7; for Color change, Initial / Impurity content (%), Initial: thermal stability test
Method: The following Table 6 and Table 7 show the thermal stability test result for dihydrochloride salt (2HCl), gentisate, maleate, citrate, fumarate and hemitartrate salts of SK-3530. Each salt was placed on a Petri dish and kept in a dryer at 105° C. Following macroscopic observation at 3 hours and 48 hours later, the content of impurities was measured with liquid chromatography.

[2] = Water and atmospheric (storage) stability: total impurities by liquid chromatography after storage; assay type: physicochemical; details: for Storage stability compared with the SK-3530 dihydrochloride salt: summary of Tables 1 to 3
Method: This test is for confirming the storage stability of SK-3530 salt.
A sufficient stability is required to process a drug into a particular medication form. For instance, preparation into tablet or capsule requires atmospheric stability and preparation into injection may require water stability.
The following Table 1 (25° C., 75% humidity), Table 2 (40° C., 60% humidity) and Table 3 (50° C., 75% humidity) show the content of total impurities measured by liquid chromatography after storing dihydrochloride (2HCl), gentisate, maleate, citrate, fumarate and hemitartrate salts of SK-3530 for 1 week and 3 weeks.

[3] = Photostability test (UV and visible light), impurity content and color change; assay type: physicochemical; details: for Color change, Initial / Impurity content (%), Initial: photostability test; for Photostability against UV and visible light compared with the SK-3530 dihydrochloride salt: summary of Tables 4 and 5; for Color change, UV / Impurity content (%), UV: total UV radiation 200 W·h/m^2; for Color change, UV / Impurity content (%), UV / Color change, Visible / Impurity content (%), Visible: 25° C., 60% humidity; for Impurity content (%), UV / Impurity content (%), Visible: Petri dish; for Color change, Visible / Impurity content (%), Visible: total visible light radiation 1080 klux/m^2h
Method: The following Table 4 and Table 5 show the photostability test result for dihydrochloride salt (2HCl), gentisate, maleate, citrate, fumarate and hemitartrate salts of SK-3530. The total ultraviolet (UV) radiation was 200 W·h/m^2 and the total visible light radiation was 1080 klux/m^2h. Each salt was kept on a Petri dish under the condition of 25° C. and 60% humidity.

PDE-5 = PDE-5 (Homo sapiens, UniProt O76074); details: statement in words; cited from earlier work

SMILES	Hygroscopicity (Hygroscopicity)	Impurity content (%), 3 hours [1] [%]	Color change, 3 hours [1]	Impurity content (%), 48 hours [1] [%]	Color change, 48 hours [1]	Thermal stability compared with the SK-3530 dihydrochloride salt [1]	Color change, Initial [1]	Impurity content (%), Initial [1] [%]	Impurity content (%) at 25° C., 75% humidity, 1 week [2] [%]	Impurity content (%) at 25° C., 75% humidity, 3 weeks [2] [%]	Impurity content (%) at 25° C., 75% humidity, Initial [2] [%]	Impurity content (%) at 40° C., 60% humidity, 1 week [2] [%]	Impurity content (%) at 40° C., 60% humidity, 3 weeks [2] [%]	Impurity content (%) at 40° C., 60% humidity, Initial [2] [%]	Impurity content (%) at 50° C., 75% humidity, 1 week [2] [%]	Impurity content (%) at 50° C., 75% humidity, 3 weeks [2] [%]	Impurity content (%) at 50° C., 75% humidity, Initial [2] [%]	Storage stability compared with the SK-3530 dihydrochloride salt [2]	Color change, Initial [3]	Impurity content (%), Initial [3] [%]	further results
CCCOc1ccc(S(=O)(=O)N2CCN(CCO)CC2)cc1-c1nc2c(CCC)cn(CC)c2c(=O)[nH]1 [SK-3530 fumarate salt]	non-hygroscopic	0.11	White	0.61	White	much superior	White	0.02	0.02	0.03	0.02	0.02	0.05	0.02	0.02	0.05	0.02	much superior	White	0.02	Photostability against UV and visible light compared with the SK-3530 dihydrochloride salt [3]: much superior; Color change, UV [3]: Pale yellow; Impurity content (%), UV [3]: 0.08%; Color change, Visible [3]: White; Impurity content (%), Visible [3]: 0.07%
CCCOc1ccc(S(=O)(=O)N2CCN(CCO)CC2)cc1-c1nc2c(CCC)cn(CC)c2c(=O)[nH]1 [SK-3530, 5-ethyl-2-{5-[4-(2-hydroxyethyl)piperazin-1-ylsulfonyl]-2-n-propoxyphenyl}-7-n-propyl-I-3,5-dihydro-4H-pyrrolo[3,2-d]pyrimidin-4-one]																					Selectivity for PDE-5 over other PDEs (PDE-5): excellent selective inhibitor
CCCOc1ccc(S(=O)(=O)N2CCN(CCO)CC2)cc1-c1nc2c(CCC)cn(CC)c2c(=O)[nH]1 [SK-3530 hemitartrate salt]	non-hygroscopic	0.14	White	0.70	White	much superior	White	0.07	0.09	0.13	0.07	0.10	0.14	0.07	0.11	0.13	0.07	much superior	White	0.07	Photostability against UV and visible light compared with the SK-3530 dihydrochloride salt [3]: much superior; Color change, UV [3]: White; Impurity content (%), UV [3]: 0.52%; Color change, Visible [3]: White; Impurity content (%), Visible [3]: 0.21%
CCCOc1ccc(S(=O)(=O)N2CCN(CCO)CC2)cc1-c1nc2c(CCC)cn(CC)c2c(=O)[nH]1 [SK-3530 gentisate salt]	non-hygroscopic	0.09	White	0.13	White	much superior	White	0.09	0.09	0.12	0.09	0.10	0.10	0.09	0.09	0.10	0.09	much superior	White	0.09	Photostability against UV and visible light compared with the SK-3530 dihydrochloride salt [3]: much superior; Color change, UV [3]: Pale yellow; Impurity content (%), UV [3]: 0.36%; Color change, Visible [3]: Pale yellow; Impurity content (%), Visible [3]: 0.17%
CCCOc1ccc(S(=O)(=O)N2CCN(CCO)CC2)cc1-c1nc2c(CCC)cn(CC)c2c(=O)[nH]1 [SK-3530 maleate salt]	non-hygroscopic	0.15	White	0.74	White	much superior	White	0.12	0.12	0.12	0.12	0.12	0.12	0.12	0.15	0.19	0.12	much superior	White	0.12	Photostability against UV and visible light compared with the SK-3530 dihydrochloride salt [3]: much superior; Color change, UV [3]: White; Impurity content (%), UV [3]: 0.35%; Color change, Visible [3]: White; Impurity content (%), Visible [3]: 0.14%
CCCOc1ccc(S(=O)(=O)N2CCN(CCO)CC2)cc1-c1nc2c(CCC)cn(CC)c2c(=O)[nH]1 [SK-3530 citrate salt]	non-hygroscopic	0.30	White	1.81	White	much superior	White	0.12	0.15	0.15	0.12	0.13	0.14	0.12	0.14	0.14	0.12	much superior	White	0.12	Photostability against UV and visible light compared with the SK-3530 dihydrochloride salt [3]: much superior; Color change, UV [3]: White; Impurity content (%), UV [3]: 0.37%; Color change, Visible [3]: White; Impurity content (%), Visible [3]: 0.14%
